Experimental data reported in ChEMBL document CHEMBL6071190, “Discovery of BAY 2666605, a Molecular Glue for PDE3A and SLFN12” (ACS Med Chem Lett, 2024).

Legend:
[1] = Selectivity ratio of IC50 for inhibition of full-length human PDE3A expressed in Sf9 cells to EC50 for antiproliferative activity against human HeLa cells
[2] = tested on: DK-MG; test: Antiproliferative activity against human DK-MG cells incubated for 72 hrs by Cell Titer Glo luminescence assay; format: functional, cell-based
[3] = Clearance in rat blood; format: ADME, tissue-based
[4] = Clearance in mouse blood; format: ADME, tissue-based
[5] = Antiproliferative activity against human NCI-H196 cells incubated for 72 hrs by Cell Titer Glo luminescence assay; format: functional, cell-based; settings: NCI-H196, 72 h
[6] = tested on: Hs-578T; test: Antiproliferative activity against human Hs-578T cells incubated for 72 hrs by Cell Titer Glo luminescence assay; format: functional, cell-based
[7] = tested on: SK-MEL3; test: Antiproliferative activity against human SK-MEL3 cells incubated for 72 hrs by Cell Titer Glo luminescence assay; format: functional, cell-based; settings: SK-MEL3, 72 h
[8] = Metabolic stability in dog hepatocytes assessed as bioavailability at 1 uM measured upto 90 mins by LC-MS/MS analysis; format: ADME, Canis lupus familiaris, Hepatocyte
[9] = Antiproliferative activity against human NCI-H2172 cells incubated for 72 hrs by Cell Titer Glo luminescence assay; format: functional, cell-based; settings: NCI-H2172, 72 h
[10] = tested on: C32; test: Antiproliferative activity against human C32 cells incubated for 72 hrs by Cell Titer Glo luminescence assay; format: functional, cell-based; settings: C32, 72 h
[11] = Metabolic stability in mouse hepatocytes assessed as bioavailability at 1 uM measured upto 90 mins by LC-MS/MS analysis; format: ADME, Hepatocyte
[12] = Metabolic stability in human hepatocytes assessed as bioavailability at 1 uM measured upto 90 mins by LC-MS/MS analysis; format: ADME, Hepatocyte
[13] = biological target: cGMP-inhibited 3',5'-cyclic phosphodiesterase 3A (Homo sapiens, UniProt Q14432); test: Inhibition of human full-length PDE3A expressed in Sf9 cells using [8-3H]adenosine 3', 5'-cyclic phosphate as substrate incubated for 60 mins by microbeta scintillation counting method
cGMP-inhibited 3',5'-cyclic phosphodiesterase 3A, sequence (Q14432 whole entry): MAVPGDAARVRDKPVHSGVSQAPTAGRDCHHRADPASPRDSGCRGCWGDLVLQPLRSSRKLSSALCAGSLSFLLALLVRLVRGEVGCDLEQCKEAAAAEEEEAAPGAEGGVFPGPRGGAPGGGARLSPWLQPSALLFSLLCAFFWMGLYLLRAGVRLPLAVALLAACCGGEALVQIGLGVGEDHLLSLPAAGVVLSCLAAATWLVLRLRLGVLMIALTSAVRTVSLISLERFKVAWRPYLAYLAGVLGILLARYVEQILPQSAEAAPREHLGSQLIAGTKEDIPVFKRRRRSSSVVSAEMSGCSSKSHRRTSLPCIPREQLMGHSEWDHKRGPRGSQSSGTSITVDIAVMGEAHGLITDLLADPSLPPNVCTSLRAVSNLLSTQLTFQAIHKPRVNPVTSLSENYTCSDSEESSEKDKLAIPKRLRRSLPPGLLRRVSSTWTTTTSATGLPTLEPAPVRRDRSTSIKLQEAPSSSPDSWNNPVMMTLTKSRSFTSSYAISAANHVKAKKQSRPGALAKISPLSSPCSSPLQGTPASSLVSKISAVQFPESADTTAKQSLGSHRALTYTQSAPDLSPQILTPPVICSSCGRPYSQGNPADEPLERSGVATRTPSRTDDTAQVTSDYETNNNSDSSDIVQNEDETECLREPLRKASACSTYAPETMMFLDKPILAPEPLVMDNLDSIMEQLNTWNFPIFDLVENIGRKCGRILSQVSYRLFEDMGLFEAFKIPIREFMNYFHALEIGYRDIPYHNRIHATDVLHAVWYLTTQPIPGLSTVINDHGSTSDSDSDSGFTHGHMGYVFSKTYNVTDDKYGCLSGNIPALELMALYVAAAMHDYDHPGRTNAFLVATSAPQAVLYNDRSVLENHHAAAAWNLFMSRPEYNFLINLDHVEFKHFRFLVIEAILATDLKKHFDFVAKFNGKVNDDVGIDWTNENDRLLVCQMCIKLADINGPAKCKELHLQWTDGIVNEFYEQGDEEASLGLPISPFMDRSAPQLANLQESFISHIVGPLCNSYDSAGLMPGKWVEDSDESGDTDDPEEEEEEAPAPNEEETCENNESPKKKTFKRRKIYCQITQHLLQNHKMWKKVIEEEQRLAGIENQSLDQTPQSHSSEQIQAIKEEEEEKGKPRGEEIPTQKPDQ

[14] = tested on: A2058; test: Antiproliferative activity against human A2058 cells incubated for 72 hrs by Cell Titer Glo luminescence assay; format: functional, cell-based; settings: A2058, 72 h
[15] = tested on: RVH-421; test: Antiproliferative activity against human RVH-421 cells incubated for 72 hrs by Cell Titer Glo luminescence assay; format: functional, cell-based; settings: RVH-421, 72 h
[16] = tested on: HeLa; test: Antiproliferative activity against human HeLa cells incubated for 72 hrs by Cell Titer Glo luminescence assay; format: functional, cell-based
[17] = Metabolic stability in rat hepatocytes assessed as bioavailability at 1 uM measured upto 90 mins by LC-MS/MS analysis; format: ADME, Hepatocyte
[18] = Antiproliferative activity against human L3.3 cells incubated for 72 hrs by Cell Titer Glo luminescence assay; format: functional, cell-based; settings: L3.3, 72 h
[19] = Half life in iv dosed mouse; format: ADME, organism-based; settings: in vivo
[20] = Toxicity in NOD-SCID mouse assessed as tolerability at 10 mg/kg, po BID; format: organism-based; settings: in vivo
[21] = Toxicity in NOD-SCID mouse assessed as weight loss at 10 mg/kg, po BID; format: organism-based; settings: in vivo
[22] = Protein binding in plasma (unknown origin); format: ADME, cell-free; settings: read-out: PPB (converted)
[23] = Half life in iv dosed dog; format: ADME, organism-based, Canis lupus familiaris; settings: in vivo
[24] = Oral bioavailability in rat; format: ADME, organism-based; settings: in vivo
[25] = Antiproliferative activity against human IGR-37 cell line; format: functional, cell-based
[26] = tested on: IGR-37 cell line; test: Antitumor activity against human IGR-37 cells xenografted in po dosed NMRI nude mouse assessed as tumor growth inhibition administered twice daily; format: functional, organism-based; settings: dose 0.5-2.5 mg/kg
[27] = Oral bioavailability in mouse; format: ADME, organism-based; settings: in vivo
[28] = Half life in iv dosed rat; format: ADME, organism-based; settings: in vivo
[29] = tested on: GB-1; test: Antiproliferative activity against human GB-1 cells incubated for 72 hrs by CellTiter-Glo luminescence assay; format: functional, cell-based; settings: GB-1, 72 h
[30] = Oral bioavailability in dog; format: ADME, organism-based, Canis lupus familiaris; settings: in vivo

clearance [3] [mL/min/kg]	clearance [4] [mL/min/kg]	EC50 [7] [nM]	Fh at 1.5 h, 1 µM [8] [%]	Fh at 1.5 h, 1 µM [11] [%]	hepatic bioavailability predicted from hepatocyte stability (Fh) at 1 µM [12] [%]	IC50 [13] [nM]	EC50 [16] [nM]	predicted hepatic bioavailability (Fh) from hepatocyte stability at 1 µM [17] [%]	Structure (SMILES)	Ratio IC50/EC50 [1]	EC50 [2] [nM]	EC50 [5] [nM]	EC50 [6] [nM]	EC50 [9] [nM]	EC50 [10] [nM]	EC50 [14] [nM]	EC50 [15] [nM]	EC50 [18] [nM]	other results
8.17	18.3	5.26	87	63	79	607	2.29	93	C[C@@H]1OC(=O)NN=C1c1ccc(-n2cc(C(F)(F)F)cn2)c(C(F)(F)F)c1	265	59	355	116	101	132	96	262	312	–
4.17	12.5	2.81	70	85	73	82	1.04	94	C[C@@H]1OC(=O)NN=C1c1ccc(-c2ccc(F)cc2)c(C(F)(F)F)c1	79	22	150	33	38	58	38	140	82	half-life [19]: 4.6 h; Activity [20]: Non-Toxic; Activity [21]: Non-Toxic; fraction unbound [22]: 0.002; half-life [23]: 13 h; bioavailability [24]: > 95%; EC50 [25]: 3.1 nM; Activity [26]: Dose-Dependent Effect; bioavailability [27]: > 95%; half-life [28]: 15 h; EC50 [29]: 8 nM; bioavailability [30]: > 95%
–	197	0.38	69	27	32	37	0.18	99	C[C@@H]1OC(=O)NN=C1c1ccc(-c2cnn(C(F)F)c2)c(C(F)(F)F)c1	202	13	32	20	37	52	25	47	15	–
